Data on six compounds can be found in US8148089B2, “Alpha-synuclein kinase” (Elan Pharma International Limited, priority 2006, dated 2012).

Read-outs that look alike come from different tables or passages of the source. A value given as a limit tells only on which side of the number the result lay.

A word on the EC50: it is the concentration that produces a half-maximal response.

Assay [1] addresses T1, over-expressed PLK2 (293) (Homo sapiens, UniProt Q9NYY3).
T1 construct: expressed in transfected cells; host or cells: HEK-293 naive cells, CMV-promoter expression vector, Lipofectamine 2000
The assay can be described thus: Synuclein phosphorylation in HEK-293 cells over-expressing synuclein and PLK2. It is filed as cell-based. Conditions: for Rank order of potency, Over-Expressed PLK2 (293): Table 19; for Rank order of potency, Synuclein + PLK2: Table 22. On the procedure:
(§1) All vectors had the sequence coding for the protein of interest. Transfection was accomplished using Lipofectamine 2000 (Invitrogen, Carlsbad, Calif.) with 0.08 μg vector. Cells were washed and harvested 48 hours post-transfection. A Micro BCA (Pierce) total protein assay and total synuclein and phospho-synuclein ELISAs were performed on each plate of treated cells.

The target of another assay is PLK2 (Homo sapiens, UniProt Q9NYY3). Put plainly: Straight biochemical assay: PLK2-driven synuclein phosphorylation in vitro. Conditions: Table 19.
The subject of assay [2] is synuclein phosphorylation in rat ventral mesencephalon cultures (E46K-Synuclein lentivirus). The assay can be described thus: Synuclein phosphorylation in RVM transduced with E46K-Synuclein. The format is cell-based. The protocol: (§2) Rat Ventral Mesencephalon (RVM) cultures were prepared from E15 Wistar rats. The RVM cultures were cultured for 2 days and transduced with 0.75 MOI E46K-Synuclein lentivirus alone, or 0.75 MOI E46K-Synuclein lentivirus plus 0.75 MOI ca-PLK2 lentivirus. […] Transduced cultures were maintained in neuronal media with B27/1% FBS and 37° C./5% CO2 until treated with inhibitors. On DIV 17 (which corresponds to 15 days after viral transduction of the cultures) cells were treated with inhibitors for two hours. Cells were then harvested as detailed above in neuronal media with B27/1% FBS. A Micro BCA (Pierce) total protein assay, and total synuclein and phospho-synuclein ELISAs were performed on each plate of treated cells using standard methods.

Assay [3] addresses T2, over-expressed PLK3 (293) (Homo sapiens, UniProt Q9H4B4).
T2 construct: expressed in transfected cells; host or cells: HEK-293 naive cells, CMV-promoter expression vector
Put plainly: Synuclein phosphorylation in HEK-293 cells over-expressing synuclein and PLK3. The format is cell-based. Conditions: for Rank order of potency, Synuclein + PLK3: Table 22. On the procedure:
as §1

The subject of assay [4] is synuclein phosphorylation in the cellular paradigms tested. The assay can be described thus: Inhibition of synuclein phosphorylation, several cellular paradigms. The format is cell-based.
In assay [5] the target is T3, over-expressed PLK4 (293) (Homo sapiens, UniProt O00444).
T3 sequence (O00444 1-970): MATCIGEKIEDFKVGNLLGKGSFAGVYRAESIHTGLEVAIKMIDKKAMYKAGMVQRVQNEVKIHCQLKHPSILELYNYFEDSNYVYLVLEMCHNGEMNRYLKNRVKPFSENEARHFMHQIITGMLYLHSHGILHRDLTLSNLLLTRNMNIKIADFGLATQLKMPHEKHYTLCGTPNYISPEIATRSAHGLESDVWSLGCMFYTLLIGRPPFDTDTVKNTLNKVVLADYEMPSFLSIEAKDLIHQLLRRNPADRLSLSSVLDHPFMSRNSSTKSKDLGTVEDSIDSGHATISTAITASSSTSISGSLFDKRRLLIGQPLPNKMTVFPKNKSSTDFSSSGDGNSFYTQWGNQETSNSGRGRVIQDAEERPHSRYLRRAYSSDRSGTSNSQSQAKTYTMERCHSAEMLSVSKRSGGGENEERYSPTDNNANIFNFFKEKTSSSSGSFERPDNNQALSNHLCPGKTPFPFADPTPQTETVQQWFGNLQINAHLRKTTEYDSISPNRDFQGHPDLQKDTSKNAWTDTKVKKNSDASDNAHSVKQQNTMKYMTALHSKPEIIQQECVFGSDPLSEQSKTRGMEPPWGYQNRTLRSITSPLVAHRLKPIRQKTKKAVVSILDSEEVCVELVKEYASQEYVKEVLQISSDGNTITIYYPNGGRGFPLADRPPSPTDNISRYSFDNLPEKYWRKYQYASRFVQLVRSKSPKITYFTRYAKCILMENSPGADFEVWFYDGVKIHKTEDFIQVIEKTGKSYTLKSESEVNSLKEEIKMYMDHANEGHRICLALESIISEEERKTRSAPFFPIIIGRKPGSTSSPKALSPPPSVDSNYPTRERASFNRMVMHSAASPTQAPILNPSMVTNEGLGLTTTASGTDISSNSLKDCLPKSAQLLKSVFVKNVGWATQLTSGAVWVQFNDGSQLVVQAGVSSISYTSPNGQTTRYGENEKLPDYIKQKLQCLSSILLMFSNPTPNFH
Put plainly: Synuclein phosphorylation in HEK-293 cells over-expressing synuclein and PLK4. The format is cell-based. Conditions: for EC50: HEK-293, Example 16, read-out: EC50 based on percent inhibition of synuclein phosphorylation, Synuclein + PLK4. The protocol:
as §1

Assay [6] concerns synuclein phosphorylation in rat ventral mesencephalon cultures (E46K-Synuclein plus ca-PLK2 lentivirus). The assay can be described thus: Synuclein phosphorylation in RVM transduced with E46K-Synuclein and caPLK2. It is filed as cell-based. Conditions: for EC50: inhibitor 2 h on DIV 17. The protocol: as §2
In caPLK2 the polo-box has been deleted, activating the Thr to Asp mutation in the kinase activation loop.

Another assay relates to endogenous kinase (293). The assay can be described thus: Synuclein phosphorylation by endogenous kinase in HEK-293 cells (synuclein + vector). The format is cell-based, human. The protocol: as §1
In assay [7] the test system is synuclein phosphorylation in C56BL/6 E46K-Synuclein transgenic mouse cortical cultures. The format is cell-based. On the procedure:
(§3) Mouse cortical cultures from fetal (i) Swiss-Webster, (ii) C56BL/6 WT and (iii) C56BL/6 E46K-Synuclein Trangenic mice were prepared and maintained in B27/DMEM/1% Penicillin-Streptomycin at 37° C./10% CO2 for three to fourteen days and then treated with kinase inhibitors.
(§4) Cultures were exposed to inhibitors for two hours in B27/DMEM/1% Penicillin-Streptomycin. Cells were immediately washed in 100 μL of PBS plus Mg^2+ and Ca^2+, and harvested in ice-cold CEB minus EGTA plus protease inhibitors, frozen on dry ice and stored at −80° C. until processed. A Micro BCA (Pierce) total protein assay, and total synuclein and phospho-synuclein ELISAs were performed on each plate of treated cells using standard methods.

Assay [8] relates to synuclein phosphorylation in MCC. Put plainly: Synuclein phosphorylation in MCC treated with TBB. It is filed as cell-based, mouse. The conditions noted are these: even at concentrations of 100 μM; data not shown. The protocol:
as §3, §4
To confirm that the inhibitory effect DMAT is due to inhibition of […], MCC were treated with TBB, a very specific CKII inhibitor. TBB had no effect on synuclein phosphorylation, even at concentrations of 100 μM (data not shown). Thus, we are confident that the inhibitory effect of DMAT on synuclein phosphorylation is due to its direct activity on PLK2 and not CKII.

Assay [9] has as its target synuclein phosphorylation by endogenous kinase in C56BL/6 WT mouse cortical cultures. Put plainly: Synuclein phosphorylation in WT mouse cortical cultures (WT-MCC). It is filed as cell-based. Conditions: inhibitor 2 h; phospho-synuclein ELISA. The protocol:
as §3, §4
For orientation: ELISA stands for enzyme-linked immunosorbent assay.

T2 sequence (Q9H4B4 whole entry): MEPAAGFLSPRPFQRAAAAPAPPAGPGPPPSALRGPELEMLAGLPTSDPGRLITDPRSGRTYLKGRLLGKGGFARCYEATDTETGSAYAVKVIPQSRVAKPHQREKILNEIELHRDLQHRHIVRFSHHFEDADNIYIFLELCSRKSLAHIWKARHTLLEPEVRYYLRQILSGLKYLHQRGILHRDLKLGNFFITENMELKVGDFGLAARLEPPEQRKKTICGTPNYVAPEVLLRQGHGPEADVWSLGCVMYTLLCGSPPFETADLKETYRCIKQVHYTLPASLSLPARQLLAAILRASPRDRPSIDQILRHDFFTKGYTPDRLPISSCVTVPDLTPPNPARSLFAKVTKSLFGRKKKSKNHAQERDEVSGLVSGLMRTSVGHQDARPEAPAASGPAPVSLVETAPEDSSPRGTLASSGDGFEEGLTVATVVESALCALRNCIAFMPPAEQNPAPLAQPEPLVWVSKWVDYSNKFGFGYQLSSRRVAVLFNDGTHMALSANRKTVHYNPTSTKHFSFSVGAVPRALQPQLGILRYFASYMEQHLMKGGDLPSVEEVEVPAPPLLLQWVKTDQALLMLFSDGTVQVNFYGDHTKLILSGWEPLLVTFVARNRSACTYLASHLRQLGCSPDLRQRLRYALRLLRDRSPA
T1 sequence (Q9NYY3 whole entry): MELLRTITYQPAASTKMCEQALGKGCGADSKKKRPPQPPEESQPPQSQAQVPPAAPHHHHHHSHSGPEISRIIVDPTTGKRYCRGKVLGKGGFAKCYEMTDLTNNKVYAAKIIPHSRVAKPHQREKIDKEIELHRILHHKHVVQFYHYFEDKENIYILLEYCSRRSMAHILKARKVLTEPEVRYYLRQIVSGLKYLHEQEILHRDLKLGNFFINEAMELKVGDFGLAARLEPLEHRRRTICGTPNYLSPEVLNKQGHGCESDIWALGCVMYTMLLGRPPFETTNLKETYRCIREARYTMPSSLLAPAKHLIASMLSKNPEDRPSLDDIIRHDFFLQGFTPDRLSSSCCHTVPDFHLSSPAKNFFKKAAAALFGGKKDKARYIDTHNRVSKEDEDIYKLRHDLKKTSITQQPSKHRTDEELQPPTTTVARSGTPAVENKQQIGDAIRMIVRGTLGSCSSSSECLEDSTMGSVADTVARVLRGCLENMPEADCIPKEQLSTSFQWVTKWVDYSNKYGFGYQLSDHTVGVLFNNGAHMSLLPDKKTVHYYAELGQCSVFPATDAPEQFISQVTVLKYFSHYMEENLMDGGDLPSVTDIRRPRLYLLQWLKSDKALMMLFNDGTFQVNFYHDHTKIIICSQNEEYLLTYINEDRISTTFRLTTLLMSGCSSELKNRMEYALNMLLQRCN
PLK2, sequence (Q9NYY3 whole entry): as above

On to `CN(C)c1nc2c(Br)c(Br)c(Br)c(Br)c2[nH]1` [DMAT, 2-Dimethylamino-4,5,6,7-tetrabromo-1H-benzimidazole], for which the “Rank order of potency, Over-Expressed PLK2 (293)” value in assay [1] is given as 4. Further, in [1], the “Rank order of potency, Synuclein + PLK2” value stood at 2. In addition, on PLK2, the “Rank order of potency, Straight Biochemical” value was determined as 2. For the same compound, the “Rank order of potency, RVM E46K-Synuclein” value in assay [2] (Table 19) stood at 4. Also, in assay [3], the “Rank order of potency, Synuclein + PLK3” value was determined as 2. Moreover, the EC50 in [4] (Homo sapiens, HEK293, read-out: EC50 values for the over-expressed PLKs) was 14 to 74 µM; in assay [4] (read-out: EC50 values for inhibition of synuclein phosphorylation in the cellular paradigms), 16 to 33 µM; in assay [5] it was 74.3 µM; in assay [6] (Rattus norvegicus), 28.5 µM. Moreover, in assay [5] (Table 22), the “Rank order of potency, Synuclein + PLK4” value turned out to be 2. Further, in [6] (Table 19), the “Rank order of potency, RVM E46K-Synuclein caPLK2” value was 4. Also, the “Rank order of potency, Synuclein + Vector” value in the assay on endogenous kinase (293) (Table 22) is 2. Further, the “Rank order of potency, E46K-Syn TG MCC” value in assay [7] (Table 19) is given as 4.

With `NC(=O)c1sc2c([N+](=O)[O-])cc(C(F)(F)F)cc2[n+]1[O-]` [ELN-481080], in [1], the “Rank order of potency, Over-Expressed PLK2 (293)” value is reported as 5. Moreover, the “Rank order of potency, Synuclein + PLK2” value in assay [1] is recorded as 3. The “Rank order of potency, Straight Biochemical” value on PLK2 is reported as 3. For the same compound, the “Rank order of potency, Synuclein + PLK3” value in assay [3] turned out to be 3. Besides, the “inhibition of synuclein phosphorylation by over-expressed PLK3” value in assay [3] (concentrations of 30-100 μM) is recorded as 30-40%. Moreover, the EC50 in assay [4] (range over (most of) the cell types tested, read-out: EC50 values for inhibition of synuclein phosphorylation in the cellular paradigms) was 12 to 38 µM; in assay [5], greater than 100 µM; in assay [6] (Rattus norvegicus), 25.2 µM. Further, the “inhibition of synuclein phosphorylation by over-expressed PLK4” value in assay [5] (concentrations of 30-100 μM) is 30-40%.

Consider `CC[C@@H]1C(=O)N(C)c2cnc(Nc3ccc(C(=O)NC4CCN(C)CC4)cc3OC)nc2N1C1CCCC1` [ELN-481574-2, 4-[[(7r)-8-cyclopentyl-7-ethyl-5,6,7,8-tetrahydro-5-methyl-6-oxo-2-pteridinyl]amino]-3-methoxy-n-(1-methyl-4-piperidinyl)-benzamide], for which, in assay [4] (most EC50 values, all cellular paradigms, read-out: EC50 values in cellular paradigms), the EC50 is no more than 0.1 µM.

Regarding `Brc1c(Br)c(Br)c2[nH]nnc2c1Br` [TBB, 4,5,6,7-Tetrabromo-2-azabenzimidazole], the “effect on synuclein phosphorylation” value in assay [8] is “no effect”.

On to `COC[C@H]1OC(=O)c2coc3c2[C@@]1(C)C1=C(C3=O)[C@@H]2CCC(=O)[C@@]2(C)C[C@H]1OC(C)=O` [Wortmannin], for which the EC50 in assay [6] (Rattus norvegicus) is greater than 100 µM.

On to Scytonemin, for which the EC50 is greater than 100 µM in assay [2] (inhibitor 2 h on DIV 17); greater than 100 µM in assay [9]; greater than 100 µM in assay [6]; greater than 100 µM in the assay on endogenous kinase (293) (Table 18); greater than 100 µM in assay [7] (inhibitor 2 h, phospho-synuclein ELISA, read-out: E46K-Syn TG MCC (EC50)). In assay [4] (in any of the cells or in the in vitro assay), the “inhibition of 50% of synuclein phosphorylation” value is “did not inhibit 50% of synuclein phosphorylation”.
